Measurements reported in ChEMBL document CHEMBL3045532, “Synthesis and evaluation of novel prodrugs of naproxen” (Med Chem Res, 2011).
Values belong to the compound of their own block, whether it stands above or below them.

Key:
[1] = test system: Rattus norvegicus; assay: Anti-inflammatory activity in Rattus norvegicus Wistar (rat) assessed as inhibition of carrageenan-induced edema volume at 62.8 mg/kg, po measured after 90 min; type: functional; settings: 1.5 h
[2] = test system: Rattus norvegicus; assay: Anti-inflammatory activity in Rattus norvegicus Wistar (rat) assessed as inhibition of carrageenan-induced edema volume at 62.8 mg/kg, po measured after 120 min; type: functional; settings: 2 h
[3] = test system: Rattus norvegicus; assay: Gastrointestinal toxicity in Rattus norvegicus Wistar (rat) assessed as ulcer at 62.8 mg/kg, po; type: organism-based; parameters: dose 62.8 mg/kg, route oral; settings: in vivo
[4] = test system: Rattus norvegicus; assay: Anti-inflammatory activity in Rattus norvegicus Wistar (rat) assessed as inhibition of carrageenan-induced edema volume at 62.8 mg/kg, po measured after 60 min; type: functional; settings: 1 h
[5] = test system: Mus musculus; assay: Analgesic activity in Mus musculus (mouse) assessed as inhibition of acetic acid-induced writhing at 62.8 mg/kg, po pretreated 1 hr before acetic acid challenge; type: functional
[6] = test system: Rattus norvegicus; assay: Anti-inflammatory activity in Rattus norvegicus Wistar (rat) assessed as inhibition of carrageenan-induced edema volume at 62.8 mg/kg, po measured after 30 min; type: functional; settings: 0.5 h
[7] = Prodrug conversion in phosphate buffer assessed as half-life for hydrolysis at pH 7.4; type: physicochemical
[8] = Prodrug conversion in acetate buffer assessed as half-life for hydrolysis at pH 4; type: physicochemical
[9] = Prodrug conversion in acetate buffer assessed as half-life for hydrolysis at pH 5; type: physicochemical
[10] = Prodrug conversion in acetate buffer assessed as half-life for hydrolysis at pH 3; type: physicochemical
[11] = test system: Rattus norvegicus; assay: Anti-inflammatory activity in Rattus norvegicus Wistar (rat) assessed as inhibition of carrageenan-induced edema volume at 63.2 mg/kg, po measured after 90 min; type: functional; settings: 1.5 h
[12] = test system: Rattus norvegicus; assay: Anti-inflammatory activity in Rattus norvegicus Wistar (rat) assessed as inhibition of carrageenan-induced edema volume at 63.2 mg/kg, po measured after 120 min; type: functional; settings: 2 h
[13] = test system: Rattus norvegicus; assay: Anti-inflammatory activity in Rattus norvegicus Wistar (rat) assessed as inhibition of carrageenan-induced edema volume at 63.2 mg/kg, po measured after 60 min; type: functional; settings: 1 h
[14] = test system: Mus musculus; assay: Analgesic activity in Mus musculus (mouse) assessed as inhibition of acetic acid-induced writhing at 63.2 mg/kg, po pretreated 1 hr before acetic acid challenge; type: functional
[15] = test system: Rattus norvegicus; assay: Anti-inflammatory activity in Rattus norvegicus Wistar (rat) assessed as inhibition of carrageenan-induced edema volume at 63.2 mg/kg, po measured after 30 min; type: functional; settings: 0.5 h
[16] = test system: Rattus norvegicus; assay: Gastrointestinal toxicity in Rattus norvegicus Wistar (rat) assessed as ulcer at 63.2 mg/kg, po; type: organism-based; parameters: dose 63.2 mg/kg, route oral; settings: in vivo
[17] = test system: Rattus norvegicus; assay: Anti-inflammatory activity in Rattus norvegicus Wistar (rat) assessed as inhibition of carrageenan-induced edema volume at 66.0 mg/kg, po measured after 90 min; type: functional; settings: 1.5 h
[18] = test system: Rattus norvegicus; assay: Anti-inflammatory activity in Rattus norvegicus Wistar (rat) assessed as inhibition of carrageenan-induced edema volume at 66.0 mg/kg, po measured after 120 min; type: functional; settings: 2 h
[19] = test system: Rattus norvegicus; assay: Gastrointestinal toxicity in Rattus norvegicus Wistar (rat) assessed as ulcer at 66 mg/kg, po; type: organism-based; parameters: dose 66 mg/kg, route oral; settings: in vivo
[20] = test system: Rattus norvegicus; assay: Anti-inflammatory activity in Rattus norvegicus Wistar (rat) assessed as inhibition of carrageenan-induced edema volume at 66.0 mg/kg, po measured after 60 min; type: functional; settings: 1 h
[21] = test system: Mus musculus; assay: Analgesic activity in Mus musculus (mouse) assessed as inhibition of acetic acid-induced writhing at 66 mg/kg, po pretreated 1 hr before acetic acid challenge; type: functional
[22] = test system: Rattus norvegicus; assay: Anti-inflammatory activity in Rattus norvegicus Wistar (rat) assessed as inhibition of carrageenan-induced edema volume at 66.0 mg/kg, po measured after 30 min; type: functional; settings: 0.5 h
[23] = species: Rattus norvegicus; assay: animal or person; settings: Wistar, po, 1.5 h, read-out: INH
Description: Anti-inflammatory activity in Rattus norvegicus Wistar (rat) assessed as inhibition of carrageenan-induced edema volume at 50.0 mg/kg, po measured after 90 min

[24] = species: Rattus norvegicus; assay: animal or person; settings: Wistar, po, 2 h, read-out: INH
Description: Anti-inflammatory activity in Rattus norvegicus Wistar (rat) assessed as inhibition of carrageenan-induced edema volume at 50.0 mg/kg, po measured after 120 min

[25] = species: Mus musculus; assay: animal or person; settings: po, read-out: INH
Description: Analgesic activity in Mus musculus (mouse) assessed as inhibition of acetic acid-induced writhing at 50 mg/kg, po pretreated 1 hr before acetic acid challenge

[26] = species: Rattus norvegicus; assay: animal or person; settings: Wistar, po, 0.5 h, read-out: INH
Description: Anti-inflammatory activity in Rattus norvegicus Wistar (rat) assessed as inhibition of carrageenan-induced edema volume at 50.0 mg/kg, po measured after 30 min

[27] = species: Rattus norvegicus; assay: animal or person; settings: Wistar, po, 1 h, read-out: INH
Description: Anti-inflammatory activity in Rattus norvegicus Wistar (rat) assessed as inhibition of carrageenan-induced edema volume at 50.0 mg/kg, po measured after 60 min

t1/2 [7]: 25 h | t1/2 [8]: 44 h | t1/2 [9]: 88 h | t1/2 [10]: 115 h
Compound: COc1ccc2cc(C(C)C(=O)OCC(OC(C)=O)C(OC(C)=O)C(OC(C)=O)C(/C=N/CC(=O)O)OC(C)=O)ccc2c1 (stereo not given)
inhibition in vivo at 62.8 mg/kg [1]: 58% | inhibition in vivo at 62.8 mg/kg [2]: 76% | Activity [3]: Non-toxic | inhibition in vivo at 62.8 mg/kg [4]: 37% | inhibition in vivo at 62.8 mg/kg [5]: 63.6% | inhibition in vivo at 62.8 mg/kg [6]: 58%

t1/2 [7]: 22 h | t1/2 [8]: 15 h | t1/2 [9]: 77 h | t1/2 [10]: 15 h
Compound: COc1ccc2cc(C(C)C(=O)OCC(OC(C)=O)C(OC(C)=O)C(OC(C)=O)C(/C=N/[C@@H](C)C(=O)O)OC(C)=O)ccc2c1 (stereo not given in full)
inhibition in vivo at 63.2 mg/kg [11]: 49% | inhibition in vivo at 63.2 mg/kg [12]: 67% | inhibition in vivo at 63.2 mg/kg [13]: 29% | inhibition in vivo at 63.2 mg/kg [14]: 98.2% | inhibition in vivo at 63.2 mg/kg [15]: 62% | Activity [16]: Non-toxic

t1/2 [7]: 19 h | t1/2 [8]: 115 h | t1/2 [9]: 88 h | t1/2 [10]: 44 h
Compound: COc1ccc2cc(C(C)C(=O)OCC(OC(C)=O)C(OC(C)=O)C(OC(C)=O)C(/C=N/[C@H](C(=O)O)C(C)C)OC(C)=O)ccc2c1 (stereo not given in full)
inhibition in vivo at 66 mg/kg [17]: 43% | inhibition in vivo at 66 mg/kg [18]: 64% | Activity [19]: Non-toxic | inhibition in vivo at 66 mg/kg [20]: 19% | inhibition in vivo at 66 mg/kg [21]: 63.6% | inhibition in vivo at 66 mg/kg [22]: 30%

Compound: COc1ccc2cc([C@H](C)C(=O)O)ccc2c1 [NAPROXEN]
inhibition in vivo at 50 mg/kg [23]: 42% | inhibition in vivo at 50 mg/kg [24]: 58% | inhibition in vivo at 50 mg/kg [25]: 61.4% | inhibition in vivo at 50 mg/kg [26]: 10% | inhibition in vivo at 50 mg/kg [27]: 32%
